The target in assay [1] is NAMPT (human, recombinant, C-terminally His-tagged) (Homo sapiens, UniProt P43490). Description: Time-Resolved Fluorescence Resonance Energy Transfer (TR-FRET) Binding Assay of NAMPT. Conditions: 6.8 nM NAMPT, 200 nM probe, equilibrated 3 hours, absence of substrates. Summed up: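 Recombinant C-terminally His-tagged human NAMPT (6.8 nM) incubated 3 h at room temperature with 200 nM Oregon Green 488–labelled nicotinamide-competitive probe and 1 nM Tb-anti-His antibody in HEPES pH 7.5, 2% DMSO. TR-FRET ratio Em520/Em495 normalized to controls; IC50 from four-parameter logistic fit.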

A further assay deals with NAMPT (Homo sapiens, UniProt P43490). The assay can be described thus: Time-Resolved Fluorescence Resonance Energy Transfer (TR-FRET) Binding Assay of NAMPT with PRPP. As to conditions: 2 nM NAMPT, 2 nM probe, 200 uM PRPP and 2.5 mM ATP, equilibrated 16 hours. The method, boiled down:
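Final mix: 2 nM NAMPT, 2 nM probe, 1 nM Tb-anti-His antibody, 200 uM PRPP, 2.5 mM ATP, 2% DMSO in 1× assay buffer. Equilibrated 16 hours before TR-FRET read, allowing possible enzymatic modification of compounds.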

For 30 molecules, IC50 results are on record in patent publication US8975398B2, “NAMPT inhibitors” (AbbVie Inc., priority 2012, dated 2015).

NAMPT, sequence (P43490 whole entry): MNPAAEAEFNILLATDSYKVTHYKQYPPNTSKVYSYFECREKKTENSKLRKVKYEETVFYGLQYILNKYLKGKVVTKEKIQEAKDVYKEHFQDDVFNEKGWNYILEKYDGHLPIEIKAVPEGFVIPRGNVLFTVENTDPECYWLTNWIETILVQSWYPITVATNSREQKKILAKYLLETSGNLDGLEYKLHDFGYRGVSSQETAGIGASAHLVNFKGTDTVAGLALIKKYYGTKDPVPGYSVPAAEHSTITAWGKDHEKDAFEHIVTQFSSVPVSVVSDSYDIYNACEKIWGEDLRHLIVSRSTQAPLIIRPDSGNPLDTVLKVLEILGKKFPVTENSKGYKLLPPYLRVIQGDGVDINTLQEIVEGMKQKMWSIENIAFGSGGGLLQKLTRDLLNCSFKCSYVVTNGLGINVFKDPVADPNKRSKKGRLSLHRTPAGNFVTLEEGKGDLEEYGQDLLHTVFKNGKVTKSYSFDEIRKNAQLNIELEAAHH
NAMPT (human, recombinant, C-terminally His-tagged), sequence (P43490 whole entry): as above

`CC(C)C(=O)N1CCC(c2ccc(NC(=O)[C@H]3CCN(c4cccnn4)C3)cc2)CC1` [Example 310, (3S)—N-{4-[1-(2-methylpropanoyl)piperidin-4-yl]phenyl}-1-(pyridazin-3-yl)pyrrolidine-3-carboxamide]: the IC50 (commonly the concentration at which inhibition is half-maximal) turned out to be 456 nM in assay [1] and 5.37 nM on NAMPT.
For `O=C(Nc1ccc(C2CCN(C(=O)c3ccccc3)CC2)cc1)[C@H]1CCN(c2cccnn2)C1` [Example 311, (3S)—N-[4-(1-benzoylpiperidin-4-yl)phenyl]-1-(pyridazin-3-yl)pyrrolidine-3-carboxamide], the values for the IC50 (in assay [1]; at NAMPT) were 30.2 nM and 3.96 nM, respectively.
In the same order, the values of `O=C(Nc1ccc(C2CCN(C(=O)CC3CCOCC3)CC2)cc1)[C@H]1CCN(c2cccnn2)C1` [Example 312, (3S)-1-(pyridazin-3-yl)-N-{4-[1-(tetrahydro-2H-pyran-4-ylacetyl)piperidin-4-yl]phenyl}pyrrolidine-3-carboxamide] are 1130 nM and 8.94 nM.
On the same counts, the results for `CC(C)(C)C(=O)N1CCC(c2ccc(NC(=O)[C@H]3CCN(c4cccnn4)C3)cc2)CC1` [Example 313, (3S)—N-{4-[1-(2,2-dimethylpropanoyl)piperidin-4-yl]phenyl}-1-(pyridazin-3-yl)pyrrolidine-3-carboxamide] are 217 nM and 4.13 nM.
On the same counts, the results for `CC(C)(C)OC(=O)N1CCC(c2ccc(C(=O)NC3CN(c4cccnn4)C3)cc2)CC1` [Example 314, tert-butyl 4-(4-{[1-(pyridazin-3-yl)azetidin-3-yl]carbamoyl}phenyl)piperidine-1-carboxylate] are 3860 nM and 0.572 nM.
As for `CC(C)Cn1cc(-c2ccc(C(=O)NC3CN(c4cccnn4)C3)s2)cn1` [Example 315, 5-[1-(2-methylpropyl)-1H-pyrazol-4-yl]-N-[1-(pyridazin-3-yl)azetidin-3-yl]thiophene-2-carboxamide], the IC50 was 469 nM in assay [1] and 0.641 nM on NAMPT.
In the same order, the values of `CC(=O)N1CCC(c2ccc(NC(=O)C3CN(c4cccnn4)C3)cc2)CC1` [Example 316, N-[4-(1-acetylpiperidin-4-yl)phenyl]-1-(pyridazin-3-yl)azetidine-3-carboxamide] are 104 nM and 0.924 nM.
On the same counts, the results for `CCCC(=O)N1CCC(c2ccc(NC(=O)C3CN(c4cccnn4)C3)cc2)CC1` [Example 317, N-[4-(1-butanoylpiperidin-4-yl)phenyl]-1-(pyridazin-3-yl)azetidine-3-carboxamide] are 43.9 nM and 0.991 nM.
On the same counts, the results for `CCCCC(=O)N1CCC(c2ccc(NC(=O)C3CN(c4cccnn4)C3)cc2)CC1` [Example 318, N-[4-(1-pentanoylpiperidin-4-yl)phenyl]-1-(pyridazin-3-yl)azetidine-3-carboxamide] are 37.7 nM and 0.716 nM.
Consider `CCC(C)C(=O)N1CCC(c2ccc(NC(=O)C3CN(c4cccnn4)C3)cc2)CC1` (stereo not drawn) [Example 319, N-{4-[1-(2-methylbutanoyl)piperidin-4-yl]phenyl}-1-(pyridazin-3-yl)azetidine-3-carboxamide], for which the IC50 stood at 24.9 nM in assay [1] and 0.747 nM at NAMPT.
For `CC(C)CC(=O)N1CCC(c2ccc(NC(=O)C3CN(c4cccnn4)C3)cc2)CC1` [Example 320, N-{4-[1-(3-methylbutanoyl)piperidin-4-yl]phenyl}-1-(pyridazin-3-yl)azetidine-3-carboxamide], the IC50 came out at 26.4 nM in assay [1] and 0.611 nM on NAMPT.
In the same order, the values of `CCCCCC(=O)N1CCC(c2ccc(NC(=O)C3CN(c4cccnn4)C3)cc2)CC1` [Example 321, N-[4-(1-hexanoylpiperidin-4-yl)phenyl]-1-(pyridazin-3-yl)azetidine-3-carboxamide] are 38.7 nM and 0.864 nM.
In the same order, the values of `CCCC(C)C(=O)N1CCC(c2ccc(NC(=O)C3CN(c4cccnn4)C3)cc2)CC1` (stereo not drawn) [Example 322, N-{4-[1-(2-methylpentanoyl)piperidin-4-yl]phenyl}-1-(pyridazin-3-yl)azetidine-3-carboxamide] are 28.6 nM and 0.843 nM.
For `CCC(C)CC(=O)N1CCC(c2ccc(NC(=O)C3CN(c4cccnn4)C3)cc2)CC1` (stereo not drawn) [Example 323, N-{4-[1-(3-methylpentanoyl)piperidin-4-yl]phenyl}-1-(pyridazin-3-yl)azetidine-3-carboxamide], the figures for the IC50 (in assay [1]; at NAMPT) were 25.3 nM and 0.885 nM, respectively.
With `CC(C)CCC(=O)N1CCC(c2ccc(NC(=O)C3CN(c4cccnn4)C3)cc2)CC1` [Example 324, N-{4-[1-(4-methylpentanoyl)piperidin-4-yl]phenyl}-1-(pyridazin-3-yl)azetidine-3-carboxamide], the IC50 in assay [1] amounted to 47.3 nM; on NAMPT, 1.04 nM.
For `CCC(C)(C)C(=O)N1CCC(c2ccc(NC(=O)C3CN(c4cccnn4)C3)cc2)CC1` [Example 325, N-{4-[1-(2,2-dimethylbutanoyl)piperidin-4-yl]phenyl}-1-(pyridazin-3-yl)azetidine-3-carboxamide], the IC50 is 14 nM in assay [1] and 1.08 nM at NAMPT.
For `CC(C)C(C)C(=O)N1CCC(c2ccc(NC(=O)C3CN(c4cccnn4)C3)cc2)CC1` (stereo not drawn) [Example 326, N-{4-[1-(2,3-dimethylbutanoyl)piperidin-4-yl]phenyl}-1-(pyridazin-3-yl)azetidine-3-carboxamide], the IC50 in assay [1] is 18.3 nM; at NAMPT it was 0.626 nM.
In the same order, the values of `CC(C)(C)CC(=O)N1CCC(c2ccc(NC(=O)C3CN(c4cccnn4)C3)cc2)CC1` [Example 327, N-{4-[1-(3,3-dimethylbutanoyl)piperidin-4-yl]phenyl}-1-(pyridazin-3-yl)azetidine-3-carboxamide] are 12.6 nM and 0.655 nM.
On to `CCC(CC)C(=O)N1CCC(c2ccc(NC(=O)C3CN(c4cccnn4)C3)cc2)CC1` [Example 328, N-{4-[1-(2-ethylbutanoyl)piperidin-4-yl]phenyl}-1-(pyridazin-3-yl)azetidine-3-carboxamide], for which the IC50 in assay [1] stood at 12.2 nM; at NAMPT, 0.614 nM.
On the same counts, the results for `CCCCCCC(=O)N1CCC(c2ccc(NC(=O)C3CN(c4cccnn4)C3)cc2)CC1` [Example 329, N-[4-(1-heptanoylpiperidin-4-yl)phenyl]-1-(pyridazin-3-yl)azetidine-3-carboxamide] are 24.2 nM and 0.616 nM.
On the same counts, the results for `C=CCC(=O)N1CCC(c2ccc(NC(=O)C3CN(c4cccnn4)C3)cc2)CC1` [Example 330, N-{4-[1-(but-3-enoyl)piperidin-4-yl]phenyl}-1-(pyridazin-3-yl)azetidine-3-carboxamide] are 31.7 nM and 0.887 nM.
On the same counts, the results for `C=CCCC(=O)N1CCC(c2ccc(NC(=O)C3CN(c4cccnn4)C3)cc2)CC1` [Example 331, N-{4-[1-(pent-4-enoyl)piperidin-4-yl]phenyl}-1-(pyridazin-3-yl)azetidine-3-carboxamide] are 24.9 nM and 0.83 nM.
On to `O=C(Nc1ccc(C2CCN(C(=O)CC(F)(F)F)CC2)cc1)C1CN(c2cccnn2)C1` [Example 332, 1-(pyridazin-3-yl)-N-{4-[1-(3,3,3-trifluoropropanoyl)piperidin-4-yl]phenyl}azetidine-3-carboxamide], for which the IC50 turned out to be 21.9 nM in assay [1] and 0.699 nM on NAMPT.
In the same order, the values of `COCC(=O)N1CCC(c2ccc(NC(=O)C3CN(c4cccnn4)C3)cc2)CC1` [Example 333, N-{4-[1-(methoxyacetyl)piperidin-4-yl]phenyl}-1-(pyridazin-3-yl)azetidine-3-carboxamide] are 50.9 nM and 0.631 nM.
In the same order, the values of `CSCC(=O)N1CCC(c2ccc(NC(=O)C3CN(c4cccnn4)C3)cc2)CC1` [Example 334, N-(4-{1-[(methylsulfanyl)acetyl]piperidin-4-yl}phenyl)-1-(pyridazin-3-yl)azetidine-3-carboxamide] are 18.2 nM and 0.578 nM.
With `COCCOCC(=O)N1CCC(c2ccc(NC(=O)C3CN(c4cccnn4)C3)cc2)CC1` [Example 335, N-(4-{1-[(2-methoxyethoxy)acetyl]piperidin-4-yl}phenyl)-1-(pyridazin-3-yl)azetidine-3-carboxamide], the IC50 was 210 nM in assay [1] and 1.02 nM on NAMPT.
In the same order, the values of `O=C(Nc1ccc(C2CCN(C(=O)CC[N+](=O)[O-])CC2)cc1)C1CN(c2cccnn2)C1` [Example 336, N-{4-[1-(3-nitropropanoyl)piperidin-4-yl]phenyl}-1-(pyridazin-3-yl)azetidine-3-carboxamide] are 77.3 nM and 0.494 nM.
Consider `CSCCC(=O)N1CCC(c2ccc(NC(=O)C3CN(c4cccnn4)C3)cc2)CC1` [Example 337, N-(4-{1-[3-(methylsulfanyl)propanoyl]piperidin-4-yl}phenyl)-1-(pyridazin-3-yl)azetidine-3-carboxamide], for which the IC50 in assay [1] came out at 50 nM; on NAMPT it was 0.522 nM.
On the same counts, the results for `C#CCCC(=O)N1CCC(c2ccc(NC(=O)C3CN(c4cccnn4)C3)cc2)CC1` [Example 338, N-{4-[1-(pent-4-ynoyl)piperidin-4-yl]phenyl}-1-(pyridazin-3-yl)azetidine-3-carboxamide] are 27.6 nM and 0.52 nM.
Regarding `O=C(Nc1ccc(C2CCN(C(=O)C3CCCCC3)CC2)cc1)C1CN(c2cccnn2)C1` [Example 339, N-{4-[1-(cyclohexylcarbonyl)piperidin-4-yl]phenyl}-1-(pyridazin-3-yl)azetidine-3-carboxamide], the IC50 in assay [1] is 17.9 nM; at NAMPT, 0.663 nM.
